In patent US20100081679A1, “DIAMINOPYRIMIDINES AS FUNGICIDES” (Bayer CropScience AG, priority 2007, published 2010):
Marks after values point to notes of the source that are not given here. Values belong to the compound of their own block, whether it stands above or below them.

Assay: logP determination via retention times, calibrated with unbranched alkan-2-ones
Assay type: physicochemical
[1] = HPLC on reversed-phase C18, method *: 40° C., 0.1% aqueous formic acid and acetonitrile, linear gradient 10% to 95% acetonitrile
[2] = HPLC on reversed-phase C18 column (EEC Directive 79/831 Annex V.A8), method *: 40° C., 0.1% aqueous formic acid and acetonitrile, linear gradient 10% to 95% acetonitrile
[3] = HPLC on reversed-phase C 18, EEC Directive 79/831 Annex V.A8, method *: 40° C., 0.1% aqueous formic acid and acetonitrile, linear gradient 10% to 95% acetonitrile
[4] = method **: HPLC reversed-phase C 18, 43° C., 0.1% aqueous phosphoric acid and acetonitrile, linear gradient 10% to 95% acetonitrile
[5] = method *: HPLC reversed-phase C18, 40° C., 0.1% aqueous formic acid and acetonitrile, linear gradient 10% to 95% acetonitrile
[6] = method *: HPLC reversed-phase C 18, temperature 40° C., mobile phase 0.1% aqueous formic acid and acetonitrile, linear gradient 10% to 95% acetonitrile
[7] = method *: HPLC, reversed-phase C 18, 40° C., mobile phase 0.1% aqueous formic acid and acetonitrile, linear gradient from 10% to 95% acetonitrile
[8] = HPLC reversed-phase C 18, EEC Directive 79/831 Annex V.A8, method *: 40° C., 0.1% aqueous formic acid and acetonitrile, linear gradient 10% to 95% acetonitrile
[9] = HPLC on reversed-phase C18, method *: 40° C., mobile phase 0.1% aqueous formic acid and acetonitrile, linear gradient 10% to 95% acetonitrile
[10] = method **: HPLC, reversed-phase C 18, 43° C., mobile phase 0.1% aqueous phosphoric acid and acetonitrile, linear gradient from 10% to 95% acetonitrile

logP [1]: 1.23*
SMILES: O=CNc1cccc(Nc2ncc(Br)c(NC3CC3)n2)c1 [compound 716]

logP [2]: 2.33*
SMILES: O=C1CCCN1c1cc(Nc2ncc(C(F)(F)F)c(NC3CC3)n2)ccc1F [compound 265]

chromatographic logP (pH 2.3, read-out: logP (pH2.3)): 1.79
SMILES: Clc1ncc(Cl)c(NC2CC2)n1 [2,5-Dichloro-N-cyclopropylpyrimidine-4-amine]

logP [3]: 2.36*
SMILES: Cc1cc(C)cc(Nc2ncc(Br)c(NCC3CC3)n2)c1 [compound 471]

logP [1]: 2.4*
SMILES: COC(=O)c1ccc(Nc2ncc(Br)c(NC3CC3)n2)cc1 [compound 762]

logP [4]: 1.52**
SMILES: NS(=O)(=O)c1ccc(Nc2ncc(Cl)c(NCC3CC3)n2)cc1 [compound 8]

logP [4]: 1.87**
SMILES: CNS(=O)(=O)c1ccc(Nc2ncc(Cl)c(NCC3CC3)n2)cc1 [compound 20]

logP [3]: 1.9*
SMILES: CCOC(=O)Nc1cccc(Nc2ncc(Cl)c(NCC3CC3)n2)c1 [compound 513]

logP [5]: 1.62*
SMILES: CN(C)S(=O)(=O)Cc1cccc(Nc2ncc(Cl)c(NC3CC3)n2)c1 [compound 431]

logP [6]: 2.36*
SMILES: CN(C)S(=O)(=O)c1cccc(Nc2ncc(C#N)c(NC3CC3)n2)c1 [compound 617]

logP [2]: 3.07*
SMILES: CC(C)(C)NC(=O)c1ccc(Nc2ncc(C(F)(F)F)c(NCC3CC3)n2)cc1 [compound 207]

logP [5]: 1.12*
SMILES: Oc1ccc(Nc2ncc(Cl)c(NC3CC3)n2)cc1 [Example 75]

logP [6]: 2.99*
SMILES: COc1cc(Nc2ncc(C(F)(F)F)c(NC3CC3)n2)ccc1F [compound 635]

logP [1]: 1.39*
SMILES: O=C1OCCN1c1ccc(Nc2ncc(Cl)c(NCC3CC3)n2)cc1 [compound 160]

logP [5]: 1.06*
SMILES: COC(=O)Nc1ccc(Nc2ncc(C)c(NC3CC3)n2)cc1 [compound 446]

logP [3]: 2.18*
SMILES: CCOC(=O)Cc1ccc(Nc2ncc(Br)c(NCC3CC3)n2)cc1 [compound 486]

logP [5]: 2.26*
SMILES: CC(=O)c1ccc(Nc2ncc(Br)c(NCC3CC3)n2)cc1 [compound 456]

logP [7]: 1.56*
SMILES: CCN(C)C(=O)c1cccc(Nc2ncc(Cl)c(NC3CC3)n2)c1 [compound 1060]

logP [1]: 4.87*
SMILES: Clc1ccc(Oc2ccccc2)c(Nc2ncc(Cl)c(NC3CC3)n2)c1 [compound 873]

logP [2]: 2.45*
SMILES: CC(C)Oc1cccc(Nc2ncc(Cl)c(NC3CC3)n2)c1 [compound 195]

logP [3]: 2.09*
SMILES: CCOC(=O)Cc1ccc(Nc2ncc(Cl)c(NCC3CC3)n2)cc1 [compound 539]

logP [3]: 2.29*
SMILES: O=C(Nc1cccc(Nc2ncc(Br)c(NCC3CC3)n2)c1)c1ccccc1 [compound 492]

logP [3]: 1.51*
SMILES: Oc1ccc(Nc2ncc(Br)c(NCC3CC3)n2)c(F)c1 [compound 478]

logP [7]: 3.41*
SMILES: CCC(CC)c1ccc(Nc2ncc(Cl)c(NC3CC3)n2)cc1 [compound 1033]

logP [7]: 1.8*
SMILES: O=C(c1cccc(Nc2ncc(Cl)c(NC3CC3)n2)c1)N1CCSCC1 [compound 1067]

logP [4]: 1.99**
SMILES: CC(=O)c1ccc(Nc2ncc(Cl)c(NC3CC3)n2)cc1.Cl [Example 45]

logP [8]: 1.82*
SMILES: COc1cc(CC#N)ccc1Nc1ncc(Cl)c(NC2CC2)n1 [compound 817]

logP [6]: 2.36*
SMILES: CS(=O)(=O)c1ccc(Nc2ncc(C(F)(F)F)c(NC3CC3)n2)cc1 [compound 644]

logP [9]: 1.56*
SMILES: CN(C)C(=O)c1ccc(Nc2ncc(Br)c(NC3CC3)n2)cc1 [compound 351]

logP [9]: 1.31*
SMILES: CC(=O)Nc1ccc(Nc2ncc(Br)c(NC3CC3)n2)cc1 [compound 348]

logP [9]: 2.77*
SMILES: Clc1cccc(Nc2ncc(Br)c(NC3CC3)n2)c1 [compound 359]

logP [4]: 1.75**
SMILES: CS(=O)(=O)c1ccc(Nc2ncc(Cl)c(NC3CC3)n2)cc1 [Example 50]

logP (HPLC on reversed-phase C 18, method **: 43° C., 0.1% aqueous phosphoric acid and acetonitrile, linear gradient 10% to 95% acetonitrile): 2.22**
SMILES: CN(c1nc(Nc2cccc(N3CCCC3=O)c2)ncc1Cl)C1CC1 [compound 769]

logP [8]: 2.18*
SMILES: Brc1cnc(Nc2ccccc2)nc1NCCC1CC1 [compound 809]

logP [1]: 1.35*
SMILES: CC(=O)Nc1cc(Nc2ncc(Br)c(NC3CC3)n2)ccc1C [compound 113]

logP [1]: 1.44*
SMILES: CN(C=O)c1ccc(Nc2ncc(Cl)c(NC3CC3)n2)cc1 [compound 978]

logP [6]: 2.92*
SMILES: CSc1cccc(Nc2ncc(C#N)c(NC3CC3)n2)c1 [compound 609]

logP [1]: 1.99*
SMILES: COc1ccccc1Nc1ncc(Cl)c(NCC2CC2)n1 [compound 687]

logP [1]: 1.37*
SMILES: O=C1OCCN1c1ccc(Nc2ncc(Br)c(NC3CC3)n2)cc1 [compound 175]

logP [1]: 2.16*
SMILES: CC(O)c1cccc(Nc2ncc(C(F)(F)F)c(NCC3CC3)n2)c1 (stereo not shown) [compound 705]

logP [8]: 1.51*
SMILES: CC(=O)Cc1cccc(Nc2ncc(Cl)c(NC3CC3)n2)c1 [compound 780]

logP [9]: 2.39*
SMILES: CC(C)(C)C(=O)Cc1ccc(Nc2ncc(Br)c(NC3CC3)n2)cc1 [compound 355]

logP [2]: 1.88*
SMILES: COc1cc(Nc2ncc(Br)c(NCC3CC3)n2)cc(OC)c1OC [compound 190]

logP [8]: 1.51*
SMILES: O=C1OCCN1c1cccc(Nc2ncc(Br)c(NC3CC3)n2)c1 [compound 842]

logP [6]: 1.17*
SMILES: COc1cc(Nc2ncc(F)c(NC3CC3)n2)ccc1NC(C)=O [compound 572]

logP [8]: 3.16*
SMILES: COC(C)c1cccc(Nc2ncc(C(F)(F)F)c(NC3CC3)n2)c1 (stereo not shown) [compound 826]

logP [2]: 2.63*
SMILES: CS(=O)(=O)c1ccc(Nc2ncc(C(F)(F)F)c(NCC3CC3)n2)cc1 [compound 200]

logP [10]: 2.88**
SMILES: COCCc1cccc(Nc2ncc(C(F)(F)F)c(NC3CC3)n2)c1 [compound 1039]

logP [1]: 3.03*
SMILES: Brc1cnc(Nc2ccccc2)nc1NC1(COc2ccccc2)CC1 [compound 932]

logP [2]: 2.32*
SMILES: Clc1cnc(Nc2ccc(-c3nccs3)cc2)nc1NC1CC1 [compound 253]

logP [4]: 2.63**
SMILES: NS(=O)(=O)c1cc(Nc2ncc(Cl)c(NCC3CC3)n2)cc(C(F)(F)F)c1 [Example 18]

logP [4]: 1.84**
SMILES: CC(=O)c1cccc(Nc2ncc(Cl)c(NC3CC3)n2)c1 [Example 5]

logP [6]: 2.84*
SMILES: CN(C)S(=O)(=O)c1ccc(Nc2ncc(C(F)(F)F)c(NC3CC3)n2)cc1 [compound 645]

logP [3]: 1.93*
SMILES: CC(C)(C)NC(=O)Cc1cccc(Nc2ncc(Cl)c(NCC3CC3)n2)c1 [compound 561]

logP [1]: 1.66*
SMILES: Brc1cnc(Nc2ccc3c(c2)OCO3)nc1NC1CC1 [compound 752]

logP [1]: 3.21*
SMILES: COC(=O)c1ccc(Nc2ncc(C(F)(F)F)c(NC3CC3)n2)cc1 [compound 971]

logP [1]: 2.14*
SMILES: CC(Nc1nc(Nc2ccccc2)ncc1Cl)C1CC1 (stereo not shown) [compound 166]

logP [9]: 2.21*
SMILES: Clc1cnc(Nc2cccc(-c3nccs3)c2)nc1NC1CC1 [compound 297]

logP [1]: 2.55*
SMILES: CCC(=O)c1ccc(Nc2ncc(Cl)c(NCC3CC3)n2)cc1 [compound 677]

logP [10]: 3.07**
logP [7]: 3.07*;
SMILES: CSc1cccc(Nc2ncc(Cl)c(NC3CC3(C)C)n2)c1 (stereo not shown) [compound 1029]

logP [2]: 1.76*
SMILES: CS(=O)(=O)c1cccc(Nc2ncc(Br)c(NC3CC3)n2)c1 [compound 254]

logP [10]: 4.15**
SMILES: COc1ccc(CN(c2nc(Nc3ccccc3)ncc2Cl)C2CC2)cc1 [compound 1025]

logP [1]: 1.53*
SMILES: COc1ccc(Nc2ncc(Br)c(NC3CC3)n2)cc1OC [compound 742]

logP [4]: 2.23**
SMILES: CCOC1(Nc2nc(Nc3ccccc3)ncc2Cl)CC1 [compound 39]

logP [1]: 2.37*
SMILES: C=CCOc1cccc(Nc2ncc(Cl)c(NC3CC3)n2)c1 [compound 715]

logP [8]: 2.07*
SMILES: CC(C)(C)NC(=O)c1cccc(Nc2ncc(Cl)c(NC3CC3)n2)c1 [compound 831]
